The source of these data is patent US20230270676A1 (priority 2020, published 2023).

Type in all cases: cell-based, human
For assay [1], the system named is SW-480 cells. Kind of assay: Transwell migration experiment (SW-480). The conditions noted are these: drug 15 μg/mL, 36 h, untreated group 100.0±11.7. The method, then: Each of the HCT116 and SW-480 cells in a logarithmic growth stage was taken and prepared into a suspension with a serum-free cell culture medium, counted, and diluted in folds, and a serum-free cell culture medium with the drug of 15 μg/mL was added. 200 μL of the suspension was inoculated into an upper chamber of a Transwell cell at a density of 1×10^5 cells/well, 500 μL of a 10% FBS-containing cell culture medium was added to a lower chamber of the Transwell cell, and the Transwell cell was incubated in a 5% CO2/37° C. incubator with saturated humidity for 36 h. The number of cells passing through the cell was counted, and cells in the upper chamber were gently wiped off with a cotton swab. Cells in the lower chamber were fixed with formaldehyde for 15 min, then stained with a 1% gentian violet staining solution for 30 min, and observed and counted under a microscope.

The test system of assay [2] is HCT116 cells. The assay can be described thus: Plate cloning experiment for proliferation of tumor cells (HCT116). The conditions noted are these: untreated group 62.0±7.6. The method, then:
(§1) Each of the HCT116 and SW-480 cells in a logarithmic growth phase was prepared into a suspension with a 10% FBS-containing cell culture medium, blown into single cells, counted, inoculated into a six-well plate at a density of 1×10^3 cells/well, and cultivated in a 5% CO2/37° C. incubator with saturated humidity until the cells were adherent to the wall. […] After the administration, the cells were often observed, and when clone spheres visible to the naked eye appeared, the cell cultivation was stopped, the supernatant was discarded, the cells were washed twice with PBS, and 1 mL of 4% paraformaldehyde (PFA) was added to conduct fixation for 20 min. The fixation solution was removed, the cells were washed 3 times with PBS, a 1% gentian violet staining solution was added to conduct staining for 30 min, and then the cells were slowly rinsed with running water to remove the staining solution, dried in an oven at 37° C., and photographed and counted. Colony-forming efficiency (CFE)=(number of cell clones/number of inoculated cells)×100%. […] The colony number was calculated for each group.

In assay [3] the test system is SW-480 cells. Kind of assay: Plate cloning experiment for proliferation of tumor cells (SW-480). The conditions noted are these: untreated group 36.1±7.5. As for the experimental part: as §1
The test system of assay [4] is HCT116 cells. Kind of assay: Apoptosis of tumor cells by flow cytometry (Annexin V-FITC/PI). The conditions noted are these: 48 h after administration, untreated group 16%. The method, then:
48 h after administration, a supernatant in each group was removed, the cells were washed with 1×PBS 3 times and then digested with EDTA-free trypsin for 2 min, and a 10% FBS-containing cell culture medium was added to stop the digestion. The resulting suspension was collected in a centrifuge tube and centrifuged at 1,000 rpm for 3 min, and resulting cells were washed twice with 1×PBS (4° C.) and resuspended in 400 μL of an Annexin V binding solution. 5 μL of an Annexin V-FITC staining solution was added, and the cells were incubated in the dark for 15 min. 10 μL of a PI staining solution was added, and the cells were incubated in the dark for 5 min. The cells were immediately tested by FC.

On to `CO[C@H]1C[C@@H]2CC[C@@H](C)[C@@](O)(O2)C(=O)C(=O)N2CCCC[C@H]2C(=O)O[C@H]([C@H](C)C[C@@H]2CC[C@@H](O)[C@H](OC)C2)CC(=O)[C@H](C)/C=C(\C)[C@@H](O)[C@@H](OC)C(=O)[C@H](C)C[C@H](C)/C=C/C=C/C=C/1C` [free RAPA, rapamycin], for which the “Percentage of cells passing through the cell” value in the assay on SW-480 cells [1] worked out at 57.4±10.6%. For the same molecule, the results for the Colony number in the assay with HCT116 cells [2] and in the assay with SW-480 cells [3] were 49.2±5.2 and 33.2±3.7, respectively. The molecule further displayed an Apoptosis rate in the assay with HCT116 cells [4] of 21%.
